Data set [1] is described as follows: Particle size and polydispersity index of nanoparticle compositions (Zetasizer Nano ZS). It is filed as physicochemical. As to conditions: for PDI / Size (nm): Table 20-1, rows without footnote mark; for particle size, rank within the named table (in words): comparison amongst compositions. A digest of the protocol: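 Zetasizer Nano ZS; samples in 1×PBS; read-out: particle size plus polydispersity index.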

Data set [2] in a line: Encapsulation efficiency of RNA (QUANT-IT RIBOGREEN RNA assay). It is filed as physicochemical. The note with it: Table 20-1; rows without footnote mark. The procedure, abridged: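 RiboGreen fluorescence (ex ~480, em ~520 nm) measured after 15 min at 37 °C on samples at ~5 μg/mL in TE, pH 7.5, ± 2% Triton X-100 solution. After blank subtraction, free RNA is given as intact-sample signal divided by disrupted-sample signal.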

Data set [3] is described as follows: pKa of nanoparticle compositions. The data set is classed as physicochemical. As to conditions: Table 20-1; rows without footnote mark.
Data set [4] relates to luciferase (Luc) mRNA expression. In words: Expression of Luc induced by sample formulations, whole-body bioluminescence after intravenous administration. The note with it: Table 20-2, mice, i.v., 0.5 mg/kg. It is filed as in vivo. A digest of the protocol:
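Read-out is whole-body bioluminescence at 3, 6 and 24 h after a single intravenous dose of 0.5 mg/kg Luc mRNA in nanoparticle formulations. Groups of n=6 mice; PBS and standard MC3 formulation as references.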

Data set [5] deals with modified luciferase expression. The data set can be described thus: Expression of Luc in different organs (liver, lung, spleen, femur) 6 hours after intravenous administration. As to conditions: Table 20-3, mice, i.v., 0.5 mpk. It is filed as in vivo. The method, then: The efficacy of the nanoparticle compositions presented in Tables 1, 1a, 17-1, 19-1, 20-1 and 21-1 was further evaluated by measuring the expression of modified luciferase in the liver, lung, spleen, and femur upon administration of a given composition. Formulations were administered intravenously to mice (n=3) at a dosage of 0.5 mpk and bioluminescence measured after 6 hours. The standard MC3 formulation and a PBS control were also tested.

The subject of the next data set is IL-6. In words: Cytokine production induced by sample formulations: IL-6. It is filed as in vivo. As to conditions: Table 20-4, formula (20-I); mice, i.v., 0.5 mpk, 6 hours; in pg/mL (unit assumed). The procedure, abridged:
(§1)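 Cytokine levels were quantified at 6 hours in mice given the nanoparticle compositions i.v. at 0.5 mpk. MC3 standard formulation and PBS served as comparators.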

In the next data set the test system is IP-10. The data set can be described thus: Cytokine production induced by sample formulations: IP-10. It is filed as in vivo. As to conditions: mice, i.v., 0.5 mpk, 6 hours; for IP-10: Table 20-4, formula (20-I), in pg/mL (unit assumed). The procedure, abridged:
as §1

Structures are written as SMILES.

The record followed here is patent US10195156B2, “Compounds and compositions for intracellular delivery of agents” (ModernaTX, Inc., priority 2015, dated 2019).

In general, pKa refers to the negative logarithm of the acid dissociation constant. Read a low pKa as a group that gives up its proton readily. As to `CCCCCCCCCCCCCCN(CCO)CCN(CCCCCCCCCCCCCC)CCCCCCCCCCCCCC` [Compound 20-12, 2-((2-(Ditetradecylamino)ethyl)(tetradecyl)amino)ethan-1-ol], in data set [1], the PDI came to 0.217; the “Size (nm)” value worked out at 147.1 nm; the “particle size, rank within the named table (in words)” value is given as “largest particles”. Moreover, the “EE (%)” value in data set [2] is 82.3%. Besides, the pKa in data set [3] stood at 6.58. In addition, in data set [4], the “Total Flux 3 hours” value is reported as 1.57E+09, the “Total Flux 6 hours” value was 1.84E+09 and the “Total Flux 24 hours” value turned out to be 1.24E+08. In addition, in data set [5], the “Total Flux Femur” value came out at 1.37E+06, the “Total Flux Liver” value stood at 3.08E+08, the “Total Flux Lung” value is reported as 3.58E+06 and the “Total Flux Spleen” value stood at 6.15E+07. The IL-6 in the data set with IL-6 was found to be 445.7. In the data set with IP-10, the IP-10 came to 3864.5.

On to `CCCCC/C=C\C/C=C\CCCCCCCCN(CCCCCCCC/C=C\C/C=C\CCCCC)CCN(CCO)CCCCCCCCCCCC` [Compound 20-13, 2-((2-(Di((9Z,12Z)-octadeca-9,12-dien-1-yl)amino)ethyl)(dodecyl)amino)ethan-1-ol], for which, in data set [1], the PDI was 0.057 and the “Size (nm)” value is given as 74.3 nm. Moreover, the “EE (%)” value in data set [2] was 97.7%. In data set [3], this molecule yielded a pKa of 5.83. Also, in data set [4], the “Total Flux 3 hours” value came out at 7.01E+08, the “Total Flux 6 hours” value was 1.82E+09 and the “Total Flux 24 hours” value was 7.39E+07. Besides, in data set [5], the “Total Flux Femur” value was found to be 3.11E+05, the “Total Flux Liver” value is given as 1.65E+08, the “Total Flux Lung” value was 9.09E+05 and the “Total Flux Spleen” value was determined as 1.04E+07. This molecule registered an IL-6 with IL-6 of 87.8. The IP-10 with IP-10 is on record as 70.0.

On to `CCCCC/C=C\C/C=C\CCCCCCCCN(CCO)CCN(CCCCCCCC/C=C\C/C=C\CCCCC)CCCCCCCC/C=C\C/C=C\CCCCC` [Compound 20-14, 2-((2-(Di((9Z,12Z)-octadeca-9,12-dien-1-yl)amino)ethyl)((9Z,12Z)-octadeca-9,12-dien-1-yl)amino)ethan-1-ol], for which, in data set [1], the PDI worked out at 0.215 and the “Size (nm)” value came out at 124.0 nm. Further, in data set [2], the “EE (%)” value is 94.5%. The same molecule came in with a pKa in data set [3] of 5.89. Further, in data set [4], the “Total Flux 3 hours” value is 1.76E+09, the “Total Flux 6 hours” value is recorded as 4.07E+08 and the “Total Flux 24 hours” value is reported as 8.10E+07. Besides, in data set [5], the “Total Flux Liver” value is 5.22E+07, the “Total Flux Lung” value turned out to be 1.08E+05 and the “Total Flux Spleen” value is 7.03E+05. The molecule further came in with an IL-6 in the data set on IL-6 of 311.1. Besides, in the data set on IP-10, the IP-10 is listed as 8436.6 and the “IP-10 induction, rank or comparison with IL-6 (in words)” value is listed as “highest”.

Turning to `CCCCCCCCCCCCN(CCCCCCCCCCCC)CCN(CCO)CCCCCC` [Compound 20-15, 2-((2-(Didodecylamino)ethyl)(hexyl)amino)ethan-1-ol], in data set [1], the PDI turned out to be 0.118; the “Size (nm)” value amounted to 67.4 nm; the “particle size, rank within the named table (in words)” value was “smallest particles”. Besides, the “EE (%)” value in data set [2] came to 97.4%. The molecule also displayed a pKa in data set [3] of 6.48. Also, in data set [4], the “Total Flux 3 hours” value turned out to be 3.36E+08, the “Total Flux 6 hours” value was 2.25E+08 and the “Total Flux 24 hours” value stood at 2.08E+07. Besides, in data set [5], the “Total Flux Liver” value is 6.74E+07, the “Total Flux Lung” value is 5.56E+05 and the “Total Flux Spleen” value turned out to be 1.86E+06. Further, in the data set with IL-6, the IL-6 is on record as 49.4. The same molecule gave an IP-10 in the data set with IP-10 of 136.3.

`CCCCCCCCCCCCN(CCCCCCCCCCCC)CCN(CCO)CCCCCCCCC` [Compound 20-17, 2-((2-(didodecylamino)ethyl)(nonyl)amino)ethan-1-ol]: in data set [1], the PDI worked out at 0.092 and the “Size (nm)” value is listed as 71.2 nm. Further, the “EE (%)” value in data set [2] is recorded as 98.2%. In data set [3], this molecule came in with a pKa of 6.25. Besides, in data set [4], the “Total Flux 3 hours” value came to 1.97E+07, the “Total Flux 6 hours” value is 1.44E+07 and the “Total Flux 24 hours” value is 1.54E+06. In data set [5], the “Total Flux Liver” value turned out to be 2.99E+06, the “Total Flux Lung” value is given as 2.79E+04 and the “Total Flux Spleen” value was determined as 9.56E+04. Moreover, the IL-6 with IL-6 came out at 6.3. In the data set with IP-10, this molecule registered an IP-10 of 1207.0.

In the case of `CCCCCCCCCCCCN(CCO)CCN(CCCCCCCCC)CCCCCCCCC` [Compound 20-18, 2-((2-(Dinonylamino)ethyl)(dodecyl)amino)ethan-1-ol], in data set [1], the PDI is recorded as 0.150 and the “Size (nm)” value is on record as 70.1 nm. Moreover, the “EE (%)” value in data set [2] was determined as 91.1%. The pKa in data set [3] was 6.31. In data set [4], the “Total Flux 3 hours” value is listed as 5.80E+09, the “Total Flux 6 hours” value is 6.48E+09 and the “Total Flux 24 hours” value was found to be 1.54E+09. Further, in data set [5], the “Total Flux Femur” value amounted to 3.78E+05, the “Total Flux Liver” value was determined as 4.83E+08, the “Total Flux Lung” value is 1.84E+06 and the “Total Flux Spleen” value amounted to 2.36E+06. This molecule had an IL-6 in the data set on IL-6 of 102. In addition, the IP-10 with IP-10 stood at 572.7.

As for `CCCCCCCCCCCCN(CCCO)CCN(CCCCCCCCCCCC)CCCCCCCCCCCC` [Compound 20-21, 3-((2-(Didodecylamino)ethyl)(dodecyl)amino)propan-1-ol], in data set [1], the PDI amounted to 0.238 and the “Size (nm)” value is reported as 78.6 nm. Moreover, the “EE (%)” value in data set [2] came out at 84.7%. This molecule also returned a pKa in data set [3] of 5.78. In data set [4], the “Total Flux 3 hours” value stood at 1.43E+09, the “Total Flux 6 hours” value is 1.02E+09 and the “Total Flux 24 hours” value is listed as 1.13E+08. Further, in data set [5], the “Total Flux Liver” value turned out to be 1.27E+08, the “Total Flux Lung” value is given as 1.98E+05 and the “Total Flux Spleen” value is recorded as 2.20E+06. This molecule gave an IL-6 in the data set with IL-6 of 68.4. In the data set on IP-10, this molecule returned an IP-10 of 900.4.

`CCCCCCCCCCCCN(CCCCO)CCN(CCCCCCCCCCCC)CCCCCCCCCCCC` [Compound 20-22, 4-((2-(Didodecylamino)ethyl)(dodecyl)amino)butan-1-ol]: in data set [1], the PDI turned out to be 0.146 and the “Size (nm)” value was 73.8 nm. Moreover, the “EE (%)” value in data set [2] is listed as 95.3%. Also, the pKa in data set [3] is given as 5.90. In addition, in data set [4], the “Total Flux 3 hours” value is reported as 4.00E+09, the “Total Flux 6 hours” value is given as 3.01E+09 and the “Total Flux 24 hours” value turned out to be 2.20E+08. For the same molecule, in data set [5], the “Total Flux Liver” value was 2.88E+08, the “Total Flux Lung” value turned out to be 5.04E+05 and the “Total Flux Spleen” value was found to be 1.65E+06. In addition, the IL-6 in the data set on IL-6 is listed as 118.6. The IP-10 with IP-10 came out at 810.6.

For `CCCCC/C=C\CCCCCN(CCO)CCN(CCCCCCCCCCCC)CCCCCCCCCCCC` [Compound 20-23, (Z)-2-((2-(Didodecylamino)ethyl)(dodec-6-en-1-yl)amino)ethan-1-ol], in data set [1], the PDI is on record as 0.080 and the “Size (nm)” value came to 88.1 nm. For the same molecule, the “EE (%)” value in data set [2] is on record as 95.3%. Moreover, the pKa in data set [3] is reported as 6.56. In data set [4], the “Total Flux 3 hours” value is on record as 1.91E+09, the “Total Flux 6 hours” value stood at 1.42E+09 and the “Total Flux 24 hours” value turned out to be 1.13E+08. For the same molecule, in data set [5], the “Total Flux Femur” value was 5.10E+05, the “Total Flux Liver” value is listed as 3.06E+08, the “Total Flux Lung” value is given as 1.28E+06 and the “Total Flux Spleen” value is listed as 4.19E+06. The same molecule displayed an IL-6 in the data set with IL-6 of 236.4. Also, the IP-10 with IP-10 is on record as 457.8.

As to `CCCCCCCCCCCCCCN(CCO)CCN(CCCCCCCCCCCC)CCCCCCCCCCCC` [Compound 20-24, 2-((2-(Didodecylamino)ethyl)(tetradecyl)amino)ethan-1-ol], in data set [1], the PDI is recorded as 0.038 and the “Size (nm)” value stood at 90.6 nm. The “EE (%)” value in data set [2] was 96.9%. In data set [3], this molecule returned a pKa of 6.06. In data set [4], the “Total Flux 3 hours” value was 7.47E+08, the “Total Flux 6 hours” value is 1.64E+08 and the “Total Flux 24 hours” value is recorded as 9.72E+06. In addition, in data set [5], the “Total Flux Liver” value amounted to 4.05E+07, the “Total Flux Lung” value is 1.08E+05 and the “Total Flux Spleen” value was 1.11E+06. The molecule also yielded an IL-6 in the data set with IL-6 of 67.1. For the same molecule, the IP-10 with IP-10 came out at 1678.6.
